This is an account of results in publication PMC4695389, “Non-classical amine recognition evolved in a large clade of olfactory receptors” (eLife, 2015).

Where a chain is given by its changes, count along the chain named. Several values for one entry are separate records, joined by “and”; a condition that tells them apart may be missing. Equal entries are not always repeated. Entries after “also recorded” stand apart in the source; their conditions may differ. Where two headings read alike, the source gives them in different places.

For one assay, the target named is zebrafish TAAR16c (Danio rerio, UniProt A0AC58H3H2, N266T). The assay is classed as cell-based.
zebrafish TAAR16c, sequence (A0AC58H3H2 entry or part of it N266T): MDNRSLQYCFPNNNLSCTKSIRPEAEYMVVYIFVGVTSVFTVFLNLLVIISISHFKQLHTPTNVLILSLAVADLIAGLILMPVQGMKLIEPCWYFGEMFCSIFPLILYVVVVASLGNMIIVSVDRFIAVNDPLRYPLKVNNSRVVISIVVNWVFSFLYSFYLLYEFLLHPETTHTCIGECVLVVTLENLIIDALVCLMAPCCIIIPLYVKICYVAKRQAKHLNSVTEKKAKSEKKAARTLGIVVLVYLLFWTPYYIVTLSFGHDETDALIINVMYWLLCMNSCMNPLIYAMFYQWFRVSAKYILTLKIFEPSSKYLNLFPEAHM
For the next assay, the target named is T1, zebrafish TAAR13c (Danio rerio, UniProt Q5QNP2).
T1 construct: expressed in transfected cells; host or cells: HEK-293
T1 sequence (Q5QNP2 1-341): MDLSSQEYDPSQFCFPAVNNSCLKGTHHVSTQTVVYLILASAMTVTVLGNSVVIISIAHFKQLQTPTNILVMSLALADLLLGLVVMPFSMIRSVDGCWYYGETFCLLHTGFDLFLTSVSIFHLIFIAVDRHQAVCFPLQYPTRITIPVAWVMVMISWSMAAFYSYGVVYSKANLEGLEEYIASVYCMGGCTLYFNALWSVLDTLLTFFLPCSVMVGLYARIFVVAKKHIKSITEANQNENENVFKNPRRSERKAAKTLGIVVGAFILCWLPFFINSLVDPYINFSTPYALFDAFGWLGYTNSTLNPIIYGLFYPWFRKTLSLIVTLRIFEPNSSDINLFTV
Description: cell-based.

The next assay deals with zebrafish. The arrangement: method as in Hussain et al., 2013. Particulars: ref Hussain et al., 2013; cited from earlier work.
The subject of a further assay is goldfish. The arrangement: method as in Rolen, et al., 2003; Hara, 2006. Particulars: ref Rolen, et al., 2003, Hara, 2006; cited from earlier work.
A further assay has as its target T2, TAAR13c^D112A (Danio rerio, UniProt Q5QNP2, D112A).
T2 construct: expressed in transfected cells; host or cells: HEK-293
T2 sequence (Q5QNP2 1-341 D112A): T1 sequence (Q5QNP2 1-341) with D112A
The assay is classed as cell-based. The note with it: any concentration tested, up to 1 mM.

In the next assay the target is zebrafish TAAR13d (Danio rerio, UniProt Q5QNQ1, I38V/T66P/V128I/V187I). Description: cell-based. The note with it: for EC50: HEK-293 cells, Cre-Seap reporter.
zebrafish TAAR13d, sequence (Q5QNQ1 entry or part of it I38V/T66P/V128I/V187I): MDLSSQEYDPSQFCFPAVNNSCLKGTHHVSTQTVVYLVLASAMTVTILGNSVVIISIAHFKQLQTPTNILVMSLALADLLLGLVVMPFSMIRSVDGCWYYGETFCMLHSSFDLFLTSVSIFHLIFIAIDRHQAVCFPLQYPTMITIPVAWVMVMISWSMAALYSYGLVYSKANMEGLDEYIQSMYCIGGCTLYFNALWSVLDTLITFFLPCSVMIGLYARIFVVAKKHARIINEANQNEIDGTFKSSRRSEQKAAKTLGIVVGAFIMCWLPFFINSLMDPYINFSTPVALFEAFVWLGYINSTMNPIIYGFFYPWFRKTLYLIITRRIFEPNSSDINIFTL
The next assay has as its target T3, zebrafish TAAR16f (Danio rerio, UniProt A0AC58GNM0, L317F/N20S/N8I/T68S, form not given).
T3 sequence (A0AC58GNM0 1-331 N8I/N20S/T68S/L317F): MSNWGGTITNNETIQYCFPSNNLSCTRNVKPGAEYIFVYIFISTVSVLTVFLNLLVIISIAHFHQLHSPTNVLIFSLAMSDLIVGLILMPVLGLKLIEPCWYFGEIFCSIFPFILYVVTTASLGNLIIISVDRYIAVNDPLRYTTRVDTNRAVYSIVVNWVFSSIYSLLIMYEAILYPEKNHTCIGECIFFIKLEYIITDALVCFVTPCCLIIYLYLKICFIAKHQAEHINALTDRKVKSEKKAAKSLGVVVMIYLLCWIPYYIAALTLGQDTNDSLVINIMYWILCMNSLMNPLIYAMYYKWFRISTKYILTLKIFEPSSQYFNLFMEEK
Format: cell-based. Particulars: for EC50: HEK-293 cells, Cre-Seap reporter.

The target in the next assay is T4, zebrafish TAAR10a (Danio rerio, UniProt Q5QNP6, I156V/V182I).
T4 sequence (Q5QNP6 1-336 I156V/V182I): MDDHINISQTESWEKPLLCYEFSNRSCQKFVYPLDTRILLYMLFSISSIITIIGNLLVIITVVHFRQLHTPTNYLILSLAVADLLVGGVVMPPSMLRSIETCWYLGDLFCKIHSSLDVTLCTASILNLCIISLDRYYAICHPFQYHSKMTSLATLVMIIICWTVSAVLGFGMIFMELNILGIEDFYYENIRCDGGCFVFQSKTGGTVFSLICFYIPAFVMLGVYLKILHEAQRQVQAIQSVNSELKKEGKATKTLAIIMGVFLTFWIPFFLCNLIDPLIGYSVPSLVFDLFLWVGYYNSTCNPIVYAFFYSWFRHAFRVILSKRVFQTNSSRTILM
As to the kind of experiment: cell-based. Particulars: HEK-293 cells, Cre-Seap reporter.

A further assay addresses T5, TAAR10b (Danio rerio, UniProt Q5QNN3, A166T/H113R/V182I/V259M).
T5 sequence (Q5QNN3 1-336 H113R/A166T/V182I/V259M): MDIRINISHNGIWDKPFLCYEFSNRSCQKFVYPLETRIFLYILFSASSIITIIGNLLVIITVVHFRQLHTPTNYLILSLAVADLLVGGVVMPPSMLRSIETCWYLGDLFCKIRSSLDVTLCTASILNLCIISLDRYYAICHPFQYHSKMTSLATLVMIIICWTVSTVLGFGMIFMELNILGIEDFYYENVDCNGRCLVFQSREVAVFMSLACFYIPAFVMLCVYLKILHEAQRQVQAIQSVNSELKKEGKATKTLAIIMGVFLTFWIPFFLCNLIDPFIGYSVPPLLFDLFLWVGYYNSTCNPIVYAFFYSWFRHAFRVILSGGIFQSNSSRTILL
Description: Cre-Seap reporter gene assay, TAAR10b in Hana3A cells. Format: cell-based, zebrafish. On the technique in general: Reporter assays use an easily measured gene product as a stand-in for the process of interest.

The target in another assay is zebrafish TAAR13a (Danio rerio, UniProt Q5QNP9, F294L/F316L/I267M/N226K/T142R). Description: cell-based. The note with it: HEK-293 cells, Cre-Seap reporter.
zebrafish TAAR13a, sequence (Q5QNP9 1-341 T142R/N226K/I267M/F294L/F316L): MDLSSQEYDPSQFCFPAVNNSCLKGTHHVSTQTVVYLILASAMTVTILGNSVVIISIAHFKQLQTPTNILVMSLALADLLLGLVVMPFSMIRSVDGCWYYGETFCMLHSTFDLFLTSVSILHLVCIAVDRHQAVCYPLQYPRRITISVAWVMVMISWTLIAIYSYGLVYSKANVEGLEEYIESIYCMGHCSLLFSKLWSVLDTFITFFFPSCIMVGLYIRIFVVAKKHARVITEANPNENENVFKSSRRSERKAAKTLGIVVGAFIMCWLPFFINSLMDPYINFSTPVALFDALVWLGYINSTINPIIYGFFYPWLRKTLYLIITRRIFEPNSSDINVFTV
A further assay has as its system TAAR16f D^5.42A mutant. As to the kind of experiment: Cre-Seap reporter gene assay, TAAR16f D^5.42A mutant. The assay is classed as cell-based, zebrafish.
The target of a further assay is T6, zebrafish TAAR14d (Danio rerio, UniProt U3JB35).
T6 sequence (U3JB35 1-328): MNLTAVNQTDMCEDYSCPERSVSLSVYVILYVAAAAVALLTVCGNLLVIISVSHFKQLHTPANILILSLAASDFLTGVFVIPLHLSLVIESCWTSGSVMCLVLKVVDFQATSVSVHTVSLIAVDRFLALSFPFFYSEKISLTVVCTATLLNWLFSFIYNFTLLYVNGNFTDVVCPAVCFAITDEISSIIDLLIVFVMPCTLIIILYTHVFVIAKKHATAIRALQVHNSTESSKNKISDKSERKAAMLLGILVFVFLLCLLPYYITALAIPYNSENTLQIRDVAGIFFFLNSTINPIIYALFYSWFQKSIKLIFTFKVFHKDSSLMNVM
As to the kind of experiment: cell-based. Particulars: HEK-293 cells, Cre-Seap reporter.

Another assay concerns the target T7, zebrafish TAAR13e (Danio rerio, UniProt Q5QNP8, I215V/V266I).
T7 sequence (Q5QNP8 1-341 I215V/V266I): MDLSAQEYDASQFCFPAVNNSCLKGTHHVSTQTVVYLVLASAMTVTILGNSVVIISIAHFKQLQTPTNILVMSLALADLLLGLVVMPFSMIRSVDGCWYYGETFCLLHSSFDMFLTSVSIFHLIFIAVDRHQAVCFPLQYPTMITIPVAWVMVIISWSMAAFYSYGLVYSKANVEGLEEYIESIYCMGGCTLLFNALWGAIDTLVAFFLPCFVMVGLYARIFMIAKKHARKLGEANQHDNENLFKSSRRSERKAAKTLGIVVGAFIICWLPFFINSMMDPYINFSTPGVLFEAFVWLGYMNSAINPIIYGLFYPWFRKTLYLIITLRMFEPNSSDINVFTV
Description: cell-based. The note with it: HEK-293 cells, Cre-Seap reporter.

The target of the next assay is T8, TAAR12i (Danio rerio, UniProt Q5QNN0, F195V/V105Y/V8A).
T8 sequence (Q5QNN0 1-340 V8A/V105Y/F195V): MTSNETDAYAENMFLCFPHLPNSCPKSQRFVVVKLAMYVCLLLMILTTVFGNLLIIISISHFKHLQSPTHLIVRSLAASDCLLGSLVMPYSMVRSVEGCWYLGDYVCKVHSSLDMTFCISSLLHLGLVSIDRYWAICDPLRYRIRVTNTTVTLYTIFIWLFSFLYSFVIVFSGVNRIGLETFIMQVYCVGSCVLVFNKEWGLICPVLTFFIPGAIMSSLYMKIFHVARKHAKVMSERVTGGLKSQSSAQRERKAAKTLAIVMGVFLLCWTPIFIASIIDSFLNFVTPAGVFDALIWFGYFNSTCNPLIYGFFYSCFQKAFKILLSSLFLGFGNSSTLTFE
As to the kind of experiment: Cre-Seap reporter gene assay, TAAR12i in Hana3A cells. Format: cell-based, zebrafish.

For the next assay, the system named is TAAR16c D^5.42A mutant. Description: Cre-Seap reporter gene assay, TAAR16c D^5.42A mutant. The assay is classed as cell-based, zebrafish.

Usually EC50 stands for the concentration giving half of the maximal effect.

With `C1CCNCC1` [piperidine], the “agonism of TAAR16c” value on zebrafish TAAR16c was “partial agonists”.
On the same count and under the same terms, then `C1CCOC1` [tetrahydrofuran], with “did not activate”.
On to `NCCCCCN` [cadaverine], for which the EC50 on zebrafish TAAR13c (HEK-293 cells, Cre-Seap reporter, read-out: EC50 (half maximal response), TAAR13c) was ~10 µM and 10 µM. Also, the avoidance behavior entry in the assay with zebrafish was “evoke avoidance behavior”. The feeding-associated pecking behavior result with goldfish is on record as “increase feeding-associated pecking behavior”. The “activation of TAAR13c D112A mutant” value at TAAR13c^D112A is “abrogates cadaverine responsiveness; also recorded: failed to activate”.
Consider `C1CCNC1` [pyrrolidine], for which the “agonism of TAAR16c” value on zebrafish TAAR16c (any concentration tested) is given as “partial agonists”.
Turning to `NCCCCN` [putrescine], in the assay on zebrafish, the avoidance behavior result is recorded as “evoke avoidance behavior”. Also, in the assay with goldfish, the feeding-associated pecking behavior result is “increase feeding-associated pecking behavior”. Besides, the EC50 at zebrafish TAAR13d was ~1 µM and 1 µM.
Take `CC(C)CCO` [isoamyl alcohol]: at zebrafish TAAR16f, the “detection by TAAR16f” value is on record as “failed to detect” and the “recognition by TAAR16f at 1 mM” value was “not”.
For the compound `NCCc1c[nH]c2ccccc12` [tryptamine], the EC50 at zebrafish TAAR10a (read-out: EC50, TAAR10a) is roughly 70 µM; at TAAR10b it was 50 µM.
`COc1ccc2[nH]cc(CCN)c2c1` [5-methoxytryptamine] gave an EC50 at zebrafish TAAR10a (EC50, TAAR10a) of roughly 20 µM.
For the compound `NCCCN` [diaminopropane], the “reduced sensitivity of TAAR13d relative to putrescine” value on zebrafish TAAR13d (compared with putrescine) was ~ 3,000 fold.
Consider `NCCc1c[nH]c2ccc(O)cc12` [serotonin], for which the EC50 at zebrafish TAAR10a (read-out: EC50, TAAR10a) was ~0.5 µM and 0.5 µM.
`NCCc1c[nH]cn1` [Histamine]: the EC50 at zebrafish TAAR13d was roughly 7 µM; on zebrafish TAAR13a, ~20 µM and 20 µM.
As to `CC(C)CCN` [isoamylamine], on zebrafish TAAR16f (1 mM), the “recognition by TAAR16f at 1 mM” value is recorded as “recognizes”. Also, the EC50 at zebrafish TAAR16f is roughly 200 µM; at zebrafish TAAR16f (listed as Isoamylamine), 200 µM. Moreover, the “response of TAAR16f with charge-neutralizing mutation of Asp^5.42” value in the assay with TAAR16f D^5.42A mutant was “completely eliminated responses”.
Consider `NCCCCN=C(N)N` [Agmatine], for which, in the assay on goldfish, the feeding-associated pecking behavior entry is recorded as “increase feeding-associated pecking behavior”. The EC50 is ~100 µM and 100 µM at zebrafish TAAR14d; ~1 µM and 1 µM on zebrafish TAAR13e.
Regarding `COc1cc(CCN)ccc1O` [3-methoxytyramine], the “activation of wild type TAAR13c” value on zebrafish TAAR13c (any concentration tested) is given as “failed to activate”. In addition, the EC50 on TAAR12i was 100 µM.
Take `CN1CCCCC1` [N-methylpiperidine]: in the assay on TAAR16c D^5.42A mutant, the “response of TAAR16c with charge-neutralizing mutation of Asp^5.42” value is on record as “completely eliminated responses”.
